Laboratory results as given in patent US20250319172A1, “ANTICANCER VACCINE COMPOSITION COMPRISING HSP90 ANTIGENIC PEPTIDE AND USE THEREOF” (ASTON SCI. INC., priority 2021, published 2025).

System: HSP90 antigenic peptide-specific IFN-γ production in spleen cells
Assay: IFN-γ ELISpot of splenocytes after test vaccination (Th1 immune response), Example 1
Type: in vivo, C57BL/6 mice
Conditions: antigen HSP90 peptide of SEQ ID NO: 1; s.c. three times every 10 days; splenocytes 10 days after last inoculation; FIG. 1A
Experimental: To analyze the efficacy of antigenic peptides selected from HSP90 (see Table 1) and various adjuvants and liposomes, test vaccines were prepared with the compositions in Table 2 and Table 3. In the case of G6 and G7 formulations, since a liposome is included in the formulations, the drug release rate is slowed, and in this regard, the amount of antigenic peptide was reduced to 20% when preparing the test vaccine. The prepared test vaccine G to G7 formulations were immunized using C57BL/B6 mice (female, 7 weeks old), 4 mice per group. […]
The test vaccine was inoculated with each vaccine formulation by subcutaneous injection three times every 10 days for 4 mice in each group, and splenocytes were isolated from the spleens of mice sacrificed 10 days after the last inoculation, the specific response to each HSP90 antigenic peptide was measured through the ELISpot method for IFN-γ or IL-10 stimulated by the HSP90 antigenic peptide (stimulant) of SEQ ID NO: 1 or SEQ ID NO: 2 according to the previously known method by Disis et al. (J Clin Oncol. 2009 Oct. 1; 27 (28): 4685-92).
If HSP90 antigenic peptide-specific IFN-γ production increased in spleen cells measured by the ELISpot method after test vaccination, the Th1 immune response was considered activated, and if the HSP90 antigenic peptide-specific IL-10 production increased, the Th2 immune response was considered activated.

LYVRRVFIMDNCEEL [SEQ ID NO: 1, HSP90 antigenic peptide, region p485-499 of HSP90]
HSP90-specific Th1 immune response (IFN-γ ELISpot): effectively induces HSP90-specific T cell immune response
